# In patent US10703748B2, “Diazanaphthalen-3-yl carboxamides and preparation and use thereof” (Samumed, LLC, priority 2017, dated 2020):
# Tests used:
# IL-6 = IL-6 inhibition in LPS-stimulated human peripheral blood mononuclear cells (HTRF); settings: Homo sapiens, PBMC; for EC50: 22 h; for inhibition at 10 µM: read-out: percentage in parentheses after EC50 >10
# [1] = test system: SW480 colon carcinoma cells; assay: Cell viability assay (CellTiter-Glo); settings: Homo sapiens; for EC50: SW480, 96 h; for inhibition at 10 µM: SW480, read-out: percent inhibition at 10 μM
# GSK3β kinase = GSK3β kinase (Homo sapiens, UniProt P49841); assay: GSK3β kinase activity (Ser/Thr 09 peptide Z-lyte FRET assay); type: biochemical; settings: recombinant kinase, 46 μM ATP, one hour at room temperature; read-out: EC50
# [2] = test system: Tau phosphorylation at Ser396 (pSer396); assay: Tau phosphorylation at Ser396 (pSer396) in SH-SY5Y cells, ELISA / western blot; type: cell-based, human; settings: Homo sapiens; SH-SY5Y cells, overnight (16-18 h); read-out: pSer396 Tau EC50;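 note: decrease in pSer396 Tau measured in lysates of treated cells by colorimetric ELISA or chemiluminescent western blot, same pSer396 antibody for both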
# Procedure: Two days before treatment, cells were seeded onto 96 well plates at 5×10^4 cells/well.
# The above synthesized compounds were screened using the cell assay procedure to assess decrease Tau phosphorylation at Ser396 (pSer396) described below.
# Cells were lysed with RIPA buffer complemented with phosphatase and protease inhibitors then lysates were spun down at 12,000 g for 10 min to remove any cellular debris.
# [3] = test system: secreted cytokines TNFα, IL-6 and KC-GRO; assay: Secreted cytokines in Lipopolysaccharide-stimulated BV-2 cells (Table 9 does not say which cytokine); type: cell-based, mouse; settings: Mus musculus, BV-2, 5 h; read-out: EC50
# [4] = test system: Wnt-responsive Sp5-Luc reporter in SW480 colon carcinoma cells; assay: Screening assay for Wnt activity (Sp5-Luc reporter gene assay); settings: Homo sapiens; for EC50: SW480; for inhibition at 10 µM: SW480, read-out: percent inhibition at 10 μM
# [5] = test system: α-smooth muscle actin (aSMA) positive LL29 cells; assay: Inhibition of the fibrotic process: αSMA staining in TGF-β1 treated LL29 fibroblasts from IPF patients; settings: Homo sapiens, Fibroblast; for EC50: 96 h; for inhibition at 10 µM: read-out: percentage in parentheses after EC50 >10
# DYRK1A kinase = DYRK1A kinase (Homo sapiens, UniProt Q13627); assay: DYRK1A kinase activity (Ser/Thr 18 peptide Z-lyte FRET assay); type: biochemical; settings: recombinant DYRK1A, 30 μM ATP, one hour at room temperature;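 note: kinase activity read as coumarin/fluorescein emission ratio after development step, with unphosphorylated and phosphorylated peptide forms setting 0% and 100% controls, values from dose-response curves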
# Sequence of GSK3β kinase (P49841 whole entry): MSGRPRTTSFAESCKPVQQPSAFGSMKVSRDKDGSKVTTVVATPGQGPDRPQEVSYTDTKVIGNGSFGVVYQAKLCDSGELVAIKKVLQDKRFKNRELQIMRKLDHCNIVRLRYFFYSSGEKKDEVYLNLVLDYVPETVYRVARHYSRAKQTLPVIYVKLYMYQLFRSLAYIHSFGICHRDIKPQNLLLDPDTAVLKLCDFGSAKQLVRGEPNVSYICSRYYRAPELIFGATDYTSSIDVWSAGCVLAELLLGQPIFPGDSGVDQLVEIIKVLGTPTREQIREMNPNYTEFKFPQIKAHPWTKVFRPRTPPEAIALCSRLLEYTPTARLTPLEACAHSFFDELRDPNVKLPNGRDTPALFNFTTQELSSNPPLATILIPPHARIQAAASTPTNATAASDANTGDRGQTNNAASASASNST
SMILES,EC50 (IL-6) [nM],EC50 [1] [nM],EC50 (GSK3β kinase) [nM],EC50 [2] [nM],EC50 [3] [nM],EC50 [4] [nM],EC50 (DYRK1A kinase) [nM],inhibition at 10 µM [1] [%],EC50 [5] [nM],inhibition at 10 µM (IL-6) [%],inhibition at 10 µM [4] [%],inhibition at 10 µM [5] [%]
"Cn1cc(-c2ccc3cnc(NC(=O)[C@H]4CC[C@H](N)CC4)cc3n2)cn1 [Compound 41, trans-4-amino-N-(2-(1-methyl-1H-pyrazol-4-yl)-1,6-naphthyridin-7-yl)cyclohexane-1-carboxamide]",2770,> 10000,429,> 10000,408,1310,10,31.8,663,,,
"CN(CC(=O)Nc1cc2nc(-c3cnn(C)c3)ccc2cn1)C1CCC1 [Compound 56, 2-(Cyclobutyl(methyl)amino)-N-(2-(1-methyl-1H-pyrazol-4-yl)-1,6-naphthyridin-7-yl)acetamide]",> 10000,> 10000,59,1500,1140,3390,21,35,5180,6.3,,
"Cn1cc(-c2ccc3cnc(NC(=O)[C@H]4CCCN4)cc3n2)cn1 [Compound 62, (R)—N-(2-(1-Methyl-1H-pyrazol-4-yl)-1,6-naphthyridin-7-yl)pyrrolidine-2-carboxamide]",4830,> 10000,9,699,557,> 10000,56,38.3,> 10000,,43.1,8.3
"Cn1cc(-c2ccc3cnc(NC(=O)C4CCN(S(C)(=O)=O)CC4)cc3n2)cn1 [Compound 71, N-(2-(1-Methyl-1H-pyrazol-4-yl)-1,6-naphthyridin-7-yl)-1-(methylsulfonyl)piperidine-4-carboxamide]",5490,> 10000,18,426,93,559,3,40.7,420,,,
"Cn1cc(-c2ccc3cnc(NC(=O)CC4CNCCO4)cc3n2)cn1 (stereo not drawn) [Compound 86, N-(2-(1-Methyl-1H-pyrazol-4-yl)-1,6-naphthyridin-7-yl)-2-(morpholin-2-yl)acetamide]",1020,3610,68,1000,201,1890,12,,1890,,,
"Cn1cc(-c2ccc3cnc(NC(=O)C4CCN(Cc5ncco5)CC4)cc3n2)cn1 [Compound 95, N-(2-(1-Methyl-1H-pyrazol-4-yl)-1,6-naphthyridin-7-yl)-1-(oxazol-2-ylmethyl)piperidine-4-carboxamide]",9090,> 10000,84,1700,66,1540,6,38.6,444,,,
"Cn1cc(-c2ccc3cnc(NC(=O)C4CCN(Cc5ncccn5)CC4)cc3n2)cn1 [Compound 99, N-(2-(1-Methyl-1H-pyrazol-4-yl)-1,6-naphthyridin-7-yl)-1-(pyrimidin-2-ylmethyl)piperidine-4-carboxamide]",8600,> 10000,180,967,177,1310,9,37,4060,,,
"CC(C(=O)Nc1cc2nc(-c3cnn(C)c3)ccc2cn1)N1CCCCC1 (stereo not drawn) [Compound 112, N-(2-(1-Methyl-1H-pyrazol-4-yl)-1,6-naphthyridin-7-yl)-2-(piperidin-1-yl)propanamide]",9400,7790,62,1100,5400,3650,88,,> 10000,,,13.8
"CC(C)CN1CCC(CC(=O)Nc2cc3nc(-c4cnn(C)c4)ccc3cn2)C1 (stereo not drawn) [Compound 122, 2-(1-Isobutylpyrrolidin-3-yl)-N-(2-(1-methyl-1H-pyrazol-4-yl)-1,6-naphthyridin-7-yl)acetamide]",3170,3110,70,481,590,2540,16,,4020,,,
"Cn1cc(-c2ccc3cnc(NC(=O)CCc4ccccc4)cc3n2)cn1 [Compound 194, N-(2-(1-Methyl-1H-pyrazol-4-yl)-1,6-naphthyridin-7-yl)-3-phenylpropanamide]",8940,7620,17,3000,819,596,23,,935,,,

# The next lines start with results.
EC50 (IL-6) [nM],EC50 [1] [nM],EC50 (GSK3β kinase) [nM],EC50 [2] [nM],EC50 [3] [nM],EC50 [4] [nM],EC50 (DYRK1A kinase) [nM],SMILES,inhibition at 10 µM [1] [%],EC50 [5] [nM],inhibition at 10 µM (IL-6) [%],inhibition at 10 µM [4] [%],inhibition at 10 µM [5] [%]
4250,165,48,562,83,107,1,"Cc1ncc(C(=O)Nc2cc3nc(-c4cnc(C)n4C)ccc3cn2)s1 [Compound 447, N-(2-(1,2-Dimethyl-1H-imidazol-5-yl)-1,6-naphthyridin-7-yl)-2-methylthiazole-5-carboxamide]",,517,,,
3510,409,350,3760,3000,279,1,"Cn1cncc1-c1ccc2cnc(NC(=O)c3cccc(CN4CCCC4)c3)cc2n1 [Compound 450, N-(2-(1-Methyl-1H-imidazol-5-yl)-1,6-naphthyridin-7-yl)-3-(pyrrolidin-1-ylmethyl)benzamide]",,517,,,
9830,1690,84,10000,4800,962,1,"Cn1cncc1-c1ccc2cnc(NC(=O)c3ccc4c(c3)CNC4)cc2n1 [Compound 477, N-(2-(1-Methyl-1H-imidazol-5-yl)-1,6-naphthyridin-7-yl)isoindoline-5-carboxamide]",,632,,,
> 10000,814,362,3940,799,530,4,"CC(C)Oc1ccc(C(=O)Nc2cc3nc(-c4cnc5n4CCNC5)ccc3cn2)cc1 [Compound 523, 4-Isopropoxy-N-(2-(5,6,7,8-tetrahydroimidazo[1,2-a]pyrazin-3-yl)-1,6-naphthyridin-7-yl)benzamide]",,1630,3.7,,
> 10000,> 10000,86,487,2200,> 10000,54,"Cc1ncc(-c2ccc3cnc(NC(=O)[C@H]4C[C@H](N5CCOCC5)C4)cc3n2)o1 [Compound 556, trans-N-(2-(2-Methyloxazol-5-yl)-1,6-naphthyridin-7-yl)-3-morpholinocyclobutane-1-carboxamide]",29.4,> 10000,4.9,41.3,27.6
> 10000,2690,109,374,257,2080,9,"Cc1cn2c(n1)CN(C(=O)Nc1cc3nc(-c4cnc(C)o4)ccc3cn1)CC2 [Compound 585, 2-Methyl-N-(2-(2-methyloxazol-5-yl)-1,6-naphthyridin-7-yl)-5,6-dihydroimidazo[1,2-a]pyrazine-7(8H)-carboxamide]",,2510,9.4,,
